Test results: the NIST ThermoML archive (doi:10.1016/j.fluid.2017.06.019)

Conditions: Coaxial cylinder method

CCC [propane]
thermal conductivity [W/m/K]
Conditions | 368.46 K | 369.12 K
3948 kPa, Gas | – | 0.04135
3960 kPa, Gas | – | 0.0417
4020 kPa, Gas | – | 0.04343
4040 kPa, Gas | – | 0.04417
4115 kPa, Gas | – | 0.0486
4120 kPa, Gas | – | 0.04907
4125 kPa, Gas | – | 0.04956
4130 kPa, Gas | – | 0.05011
4135 kPa, Gas | – | 0.05071
4140 kPa, Gas | – | 0.05135
4145 kPa, Gas | – | 0.05207
4150 kPa, Gas | – | 0.0529
4154 kPa, Gas | – | 0.05366
4156 kPa, Gas | – | 0.05402
4158 kPa, Gas | – | 0.05445
4160 kPa, Gas | – | 0.05488
4162 kPa, Gas | – | 0.0554
4164 kPa, Gas | – | 0.05743
4166 kPa, Gas | – | 0.06032
4168 kPa, Gas | – | 0.0639
4170 kPa, Gas | – | 0.06861
4172 kPa, Gas | – | 0.07431
4180 kPa, Gas | – | 0.113
4182 kPa, Gas | – | 0.127
4184 kPa, Gas | – | 0.1426
4186 kPa, Gas | – | 0.1588
4188 kPa, Gas | – | 0.179
4190 kPa, Gas | – | 0.1956
4192 kPa, Gas | – | 0.2155
4194 kPa, Liquid | – | 0.2155
4196 kPa, Liquid | – | 0.1917
4198 kPa, Liquid | – | 0.1741
4200 kPa, Liquid | – | 0.1606
4202 kPa, Liquid | – | 0.1497
4204 kPa, Liquid | – | 0.1407
4206 kPa, Liquid | – | 0.1335
4208 kPa, Liquid | – | 0.1259
4210 kPa, Liquid | – | 0.1185
4212 kPa, Liquid | – | 0.1121
4213 kPa, Liquid | – | 0.1093
4215 kPa, Liquid | – | 0.1035
4228 kPa, Liquid | – | 0.08399
4230 kPa, Liquid | – | 0.08176
4232 kPa, Liquid | – | 0.07987
4234 kPa, Liquid | – | 0.07806
4236 kPa, Liquid | – | 0.07633
4238 kPa, Liquid | – | 0.07491
4240 kPa, Liquid | – | 0.07344
4260 kPa, Liquid | – | 0.06913
4280 kPa, Liquid | – | 0.06803
4300 kPa, Liquid | – | 0.06726
4312 kPa, Liquid | 0.0651 | –
4314 kPa, Liquid | 0.06505 | –
4316 kPa, Liquid | 0.06503 | –
4318 kPa, Liquid | 0.06501 | –
4320 kPa, Liquid | 0.06499 | 0.06665
4322 kPa, Liquid | 0.06499 | –
4324 kPa, Liquid | 0.06497 | –
4326 kPa, Liquid | 0.06493 | –
4328 kPa, Liquid | 0.06493 | –
4330 kPa, Liquid | 0.06489 | –
4332 kPa, Liquid | 0.06487 | –
4334 kPa, Liquid | 0.06484 | –
4336 kPa, Liquid | 0.06484 | –
4338 kPa, Liquid | 0.06482 | –
4340 kPa, Liquid | 0.06482 | 0.06616
4345 kPa, Liquid | 0.06476 | –
4350 kPa, Liquid | 0.06472 | –
4355 kPa, Liquid | 0.06468 | –
4360 kPa, Liquid | 0.06461 | –
4365 kPa, Liquid | 0.06458 | –
4368 kPa, Liquid | 0.06458 | –
4375 kPa, Liquid | 0.06454 | –
4380 kPa, Liquid | 0.0645 | 0.06546
4385 kPa, Liquid | 0.06446 | –
4390 kPa, Liquid | 0.06443 | –
4400 kPa, Liquid | 0.06439 | 0.06519
4450 kPa, Liquid | 0.06421 | –
4500 kPa, Liquid | 0.06413 | –
4550 kPa, Liquid | 0.06411 | –
4600 kPa, Liquid | 0.06411 | –
4650 kPa, Liquid | 0.06421 | –
4700 kPa, Liquid | 0.06427 | –
4750 kPa, Liquid | 0.06439 | –
4800 kPa, Liquid | 0.06451 | –
4900 kPa, Liquid | 0.06477 | –
4960 kPa, Liquid | 0.06496 | –
4965 kPa, Liquid | 0.065 | –
4967 kPa, Liquid | 0.065 | –
5000 kPa, Liquid | 0.06509 | –
5100 kPa, Liquid | 0.06542 | –
5200 kPa, Liquid | 0.06573 | –
5300 kPa, Liquid | 0.06605 | –
5400 kPa, Liquid | 0.06646 | –
5500 kPa, Liquid | 0.06674 | –
5600 kPa, Liquid | 0.06707 | –
5700 kPa, Liquid | 0.06732 | –
5800 kPa, Liquid | 0.06767 | –
5900 kPa, Liquid | 0.06794 | –
6010 kPa, Liquid | 0.06831 | –
6020 kPa, Liquid | 0.06831 | –
6200 kPa, Liquid | 0.06884 | –
6210 kPa, Liquid | 0.06886 | –
8500 kPa, Liquid | – | 0.0737
9020 kPa, Liquid | – | 0.07453
10028 kPa, Liquid | – | 0.07577
14772 kPa, Liquid | – | 0.08097
